Where a SMILES comes first, the peptide text is derived from it. The star is where a group is joined. Myristoyl = CCCCCCCCCCCCCC(=O)*
Assays:
Format in all cases: cell-based, human
[1] = system: Cost ALCL cells (NPM–ALK); assay: Cell viability assay (CellTiterGlo, ATP content); conditions: increasing doses, 48 h
Protocol: (§1) At the end of incubation, cell viability was assessed by measuring the ATP content of wells using the luminescence-based CellTiterGlo assay (Promega) with a Berthold Mithras (http://www.berthold.com) plate reader. Each culture condition was assayed in triplicate.

[2] = system: SH-SY5Y neuroblastoma cells (ALK-F1174L); assay: Cell viability assay (CellTiterGlo, ATP content); conditions: increasing doses, 48 h
Protocol: as §1

[3] = system: caspase 3 in Cost cells; assay: Western blot of caspase 3 cleavage; conditions: Cost cells treated 6 h; P36 10 μM, doxorubicin 2 μM; compared with culture medium
Protocol: Cells were washed once with PBS, pelleted, and extracted in RIPA buffer (150 mM NaCl, 20 mM Tris-HCl, pH 7.7, 4 mM EDTA, 0.5% Triton X-100) containing 10 μg/ml leupeptin, 2 μg/ml aprotinin, 1 mM 4-2-aminoethyl-benzenesulfonyl fluoride, 1 mM sodium orthovanadate, and 4 mM sodium fluoride for 30 min on ice. Cell extracts were either centrifuged at 10 000 × g for 20 min at 4 °C and the supernatant recovered, or sonicated for better extraction of nuclear proteins. The protein content was quantified using the Bio-Rad (www.biorad.com) Bradford protein assay. For western blotting, total cell proteins were subjected to SDS-polyacrylamide gel electrophoresis (SDS-PAGE) in a 4–12% bis/tris acrylamide (Novex NuPAGE, Invitrogen) gradient gel using the Nupage system with Mops SDS buffer under reducing conditions and transferred for 3 h at 60 V onto a nitrocellulose membrane. The blots were hybridized with the following primary antibodies:
ZAL4 anti-human ALK rabbit monoclonal antibody (1/200, Invitrogen), phospho-ALK (Y1604) (1/1000, #3341, Cell Signaling Technology, www.cellsignal.com) rabbit antiserum, mouse monoclonal anti-caspase 3 (1/200, sc-7148, Santa Cruz Biotechnologies, www.scbt.com), rabbit polyclonal anti-p53 (1/500, #554167, BD Pharmingen, www.bdbiosciences.com) and rabbit polyclonal anti-GAPDH (1/2000, Millipore, www.millipore.com) antibodies. […]

SMILES | effect on cell viability (cytotoxicity) [1] | effect on cell viability (cytotoxicity) [2] | caspase 3 cleavage (western blot) [3]
CCCCCCCCCCCCCC(=O)N[C@@H](CC(=O)O)C(=O)N[C@@H](Cc1ccc(O)cc1)C(=O)N[C@@H](CC(N)=O)C(=O)N1CCC[C@H]1C(=O)N[C@@H](CC(N)=O)C(=O)N[C@@H](Cc1ccc(O)cc1)C(=O)N[C@@H](CS)C(=O)N[C@@H](Cc1ccccc1)C(=O)N[C@@H](C)C(=O)NCC(=O)N[C@@H](CCCCN)C(=O)N[C@H](C(N)=O)[C@@H](C)O [P12-1] (Myristoyl-DYNPNYCFAGKT-NH2) | no effect |  | 
CCCCCCCCCCCCCC(=O)N[C@@H](CO)C(=O)N[C@@H](CO)C(=O)N[C@H](C(=O)N[C@@H](CO)C(=O)N[C@@H](CC(=O)O)C(=O)N[C@@H](CC(C)C)C(=O)N[C@@H](CCCCN)C(=O)N[C@@H](CCC(=O)O)C(=O)N[C@H](C(=O)N1CCC[C@H]1C(=O)N[C@@H](CCCNC(=N)N)C(=O)N[C@@H](CCCCN)C(N)=O)C(C)C)[C@@H](C)CC [P12-3] (Myristoyl-SSISDLKEVPRK-NH2) | dose-dependent cytotoxicity |  | 
CCCCCCCCCCCCCC(=O)N[C@@H](CCCCN)C(=O)N[C@@H](CCC(=O)O)C(=O)N[C@H](C(=O)N1CCC[C@H]1C(=O)N[C@@H](CCCNC(=N)N)C(=O)N[C@@H](CCCCN)C(=O)N[C@@H](CC(N)=O)C(=O)N[C@H](C(=O)N[C@H](C(=O)N[C@@H](CC(C)C)C(=O)N[C@H](C(=O)N[C@@H](CCCNC(=N)N)C(N)=O)[C@@H](C)CC)[C@@H](C)O)[C@@H](C)CC)C(C)C [P12-4] (Myristoyl-KEVPRKNITLIR-NH2) | no effect |  | 
CCCCCCCCCCCCCC(=O)N[C@@H](CC(N)=O)C(=O)N[C@H](C(=O)N[C@H](C(=O)N[C@@H](CC(C)C)C(=O)N[C@H](C(=O)N[C@@H](CCCNC(=N)N)C(=O)NCC(=O)N[C@@H](CC(C)C)C(=O)NCC(=O)N[C@@H](Cc1c[nH]cn1)C(=O)NCC(=O)N[C@@H](C)C(N)=O)[C@@H](C)CC)[C@@H](C)O)[C@@H](C)CC [P12-5] (Myristoyl-NITLIRGLGHGA-NH2) | dose-dependent cytotoxicity |  | 
CCCCCCCCCCCCCC(=O)N[C@@H](CCC(=O)O)C(=O)NCC(=O)N[C@@H](CC(C)C)C(=O)N[C@@H](CC(C)C)C(=O)N[C@@H](Cc1ccccc1)C(=O)N[C@H](C(=O)N[C@@H](Cc1ccc(O)cc1)C(=O)N[C@@H](Cc1c[nH]cn1)C(=O)N[C@H](C(=O)N[C@H](C(=O)N[C@@H](CCCCN)C(=O)N[C@@H](CCCNC(=N)N)C(=O)N[C@@H](CC(=O)O)C(=O)N[C@@H](Cc1ccc(O)cc1)C(=O)NCC(=O)N[C@@H](CC(N)=O)C(=O)N[C@@H](CC(N)=O)C(=O)N[C@@H](CC(C)C)C(=O)N[C@@H](C)C(=O)N[C@@H](CC(=O)O)C(=O)N[C@@H](CO)C(=O)N[C@H](C(=O)NCC(=O)N1CCC[C@H]1C(=O)NCC(=O)N[C@@H](CC(N)=O)C(=O)N[C@H](C(=O)N[C@@H](CO)C(=O)N[C@@H](C)C(=O)N1CCC[C@H]1C(=O)N[C@@H](CO)C(=O)N[C@H](C(=O)N[C@@H](CS)C(=O)N[C@@H](CCCCN)C(=O)N[C@@H](CCCNC(=N)N)C(=O)N[C@@H](CCCCN)C(N)=O)[C@@H](C)CC)[C@@H](C)O)[C@@H](C)CC)[C@@H](C)O)C(C)C)[C@@H](C)CC [P36scr] (Myristoyl-EGLLFIYHVTKRDYGNNLADSIGPGNTSAPSICKRK-NH2) | failed to affect | failed to affect | 
COc1cccc2c1C(=O)c1c(O)c3c(c(O)c1C2=O)C[C@@](O)(C(=O)CO)C[C@@H]3O[C@H]1C[C@H](N)[C@H](O)[C@H](C)O1 [doxorubicin] |  |  | increased caspase 3 cleavage

Source: publication PMC4669685, “Peptides derived from the dependence receptor ALK are proapoptotic for ALK-positive tumors” (Cell Death & Disease, 2015)
